The values below come from patent US4742057A, “Antiallergic thiazole compounds” (Fujisawa Pharmaceutical Co., Ltd., priority 1985, dated 1988).

The assay relates to anaphylactic asthma in guinea pigs. The assay is described as follows: Antagonistic action on anaphylactic asthma in guinea pigs (prophylactic effect, survival after antigen spraying). The format is in vivo, guinea pigs (male Hartley-strain). The note with it: Cavia porcellus; oral, 30 min before egg-white albumin aerosol; survival for not less than 2 hours; passively sensitized guinea pigs.

Consider `CC(=O)Nc1nc(CN2CCC(c3c[nH]c4ccccc34)CC2)cs1` [Compound A, 2-Acetylamino-4-[4-(3-indolyl)piperidinomethyl]thiazole], for which the 50% effective dose (ED50) stood at 0.95 mg/kg.
Under `CS(=O)(=O)Nc1nc(CN2CCC(c3c[nH]c4ccccc34)CC2)cs1` [Compound B, 4-[4-(3-Indolyl)piperidinomethyl]-2-mesylaminothiazole] stands 0.086 mg/kg; under `CS(=O)(=O)Nc1nc(CCN2CCC(c3c[nH]c4ccccc34)CC2)cs1` [Compound C, 4-[2-[4-(3-Indolyl)piperidino]ethyl]2-mesylaminothiazole], 0.02 mg/kg.
Turning to `CCC(=O)Nc1nc(CN2CCC(c3c[nH]c4ccccc34)CC2)cs1` [Compound D, 4-[4-(3-Indolyl)piperidinomethyl]-2-propionylaminothiazole], the 50% effective dose (ED50) was 0.92 mg/kg.
Under `Nc1nc(CCCN2CCC(c3c[nH]c4ccccc34)CC2)cs1` [Compound F, 4-[3-[4-(3-Indolyl)piperidino]propyl]-2-aminothiazole] stands 0.3 mg/kg; under `CS(=O)(=O)Nc1nc(CCCN2CCC(c3c[nH]c4ccccc34)CC2)cs1` [Compound G, 4-[3-[4-(3-Indolyl)piperidino]propyl]-2-mesylaminothiazole], 0.03 mg/kg.

As usually defined, the ED50 is the dose at which the effect has come halfway, by size or by number of responders.
